Experimental data: patent US5773442A, “Benzamidine derivatives and pharmaceutical composition containing them” (Yamanouchi Pharmaceutical Co., Ltd., priority 1995, dated 1998)

What was measured:
GPIIb/IIIa = target: T1, GPIIb/IIIa (Homo sapiens, UniProt P05106+P08514); test: Bonding of fibrinogen to pure GPIIb/IIIa; format: binding; conditions: biotinated fibrinogen, 37° C., 3 hours
T1 construct: GPIIb/IIIa was purified according to a Fitzgerald et al's method; from tissue; host or cells: platelets (human, inferred from the cited Fitzgerald method)
Experimental: Bonding of fibrinogen to pure GPIIb/IIIa: GPIIb/IIIa was purified according to a Fitzgerald et al's method. Fibrinogen was biotinated with NHS-LC-Biotin (manufactured by Pierce Co.). The pure GPIIb/IIIa was added to TBS (20 mM Tris-HCl, pH 7.4, 150 mM NaCl, 1 mM CaCl2, 1 mM MgCl2) at one μg/ml. 100 μl of the resulting solution was put into a 96-well plate (MaxiSorp™, manufactured by Nunc Co.) and left at 4° C. overnight. […] After the solution was removed, a sample compound to be tested and the biotinated fibrinogen were added to the plate and reacted at 37° C. for 3 hours. […] This was washed three times with 300 μl of T-TBS.

[1] = test system: platelet aggregation (PRP; ADP and collagen as triggers); test: Ex vivo platelet aggregation-inhibiting activity in cynomolgus monkeys; conditions: 3 mg/kg via stomach tube, 20 μM ADP and 10 μg/ml collagen, mean ± SEM (n = 3)
Experimental: Ex vivo platelet aggregation-inhibiting activity in cynomolgus monkeys:
Cynomolgus monkeys that had been lightly anesthetized by intramuscular administration of ketamine hydrochloride were fixed on a work-bench, and a sample compound of the present invention as dissolved in 2 ml of […] was forcedly administered into its stomach via a stomach tube at a dose of 3 mg/kg. Before the administration and after the administration at a predetermined period of time, 3 ml (containing 1/10 times by volume of sodium citrate) of the blood was collected from the animal through its femoral vein. From the blood was obtained platelet-rich-plasma (PRP) of 300,000/μl, according to the De Marco et al's method (see J. clin. Invest., 77, 1272-1277, 1988). The PRP was adjusted at 3×10^8 /ml with an automatic blood cell counter (MEK-5158 Model, produced by Nihon Koden Co.) before use. Added thereto were 20 μM of ADP and 10 μg/ml of bovine tendon-derived collagen (produced by Niko Bioscience Co.) as triggers, whereby the aggregation of the platelets was caused in the PRP. The degree of the aggregation of the platelets was measured with a platelet aggregation meter (NBS Hematracer 801, produced by Niko Bioscience Co.). The platelet aggregation-inhibiting activity of the tested compound was represented by the inhibition percentage (%) relative to the maximum aggregation percentage of each animal before the addition of the compound thereto.

T1 sequence (P08514 32-887 limits assumed): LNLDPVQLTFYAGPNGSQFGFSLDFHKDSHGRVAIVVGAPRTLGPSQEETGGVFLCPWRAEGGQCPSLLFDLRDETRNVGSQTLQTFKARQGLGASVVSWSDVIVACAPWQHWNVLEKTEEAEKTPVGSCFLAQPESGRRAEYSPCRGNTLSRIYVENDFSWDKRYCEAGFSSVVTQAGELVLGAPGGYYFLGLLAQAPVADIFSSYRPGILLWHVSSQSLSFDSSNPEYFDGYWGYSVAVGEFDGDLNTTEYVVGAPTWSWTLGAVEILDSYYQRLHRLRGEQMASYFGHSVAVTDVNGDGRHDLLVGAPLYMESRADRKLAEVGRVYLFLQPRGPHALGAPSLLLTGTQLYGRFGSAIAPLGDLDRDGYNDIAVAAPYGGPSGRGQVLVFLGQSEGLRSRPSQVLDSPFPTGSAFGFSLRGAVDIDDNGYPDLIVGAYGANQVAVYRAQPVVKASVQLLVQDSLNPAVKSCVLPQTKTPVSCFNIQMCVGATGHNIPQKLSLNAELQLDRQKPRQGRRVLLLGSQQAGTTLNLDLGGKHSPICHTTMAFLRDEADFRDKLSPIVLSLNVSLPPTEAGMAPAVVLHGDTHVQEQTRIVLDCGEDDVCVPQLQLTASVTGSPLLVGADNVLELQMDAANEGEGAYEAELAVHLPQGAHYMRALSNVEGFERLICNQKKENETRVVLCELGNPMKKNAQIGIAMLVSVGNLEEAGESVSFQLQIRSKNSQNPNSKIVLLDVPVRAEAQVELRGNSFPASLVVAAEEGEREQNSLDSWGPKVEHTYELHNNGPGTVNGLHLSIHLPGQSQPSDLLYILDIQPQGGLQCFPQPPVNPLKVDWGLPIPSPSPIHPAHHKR
T1 sequence (P08514 891-1039 limits assumed): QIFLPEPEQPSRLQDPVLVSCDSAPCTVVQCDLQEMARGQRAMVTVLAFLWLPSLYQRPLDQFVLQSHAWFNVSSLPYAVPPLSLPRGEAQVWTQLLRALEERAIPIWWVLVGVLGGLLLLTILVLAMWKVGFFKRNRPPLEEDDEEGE
T1 sequence (P05106 27-788): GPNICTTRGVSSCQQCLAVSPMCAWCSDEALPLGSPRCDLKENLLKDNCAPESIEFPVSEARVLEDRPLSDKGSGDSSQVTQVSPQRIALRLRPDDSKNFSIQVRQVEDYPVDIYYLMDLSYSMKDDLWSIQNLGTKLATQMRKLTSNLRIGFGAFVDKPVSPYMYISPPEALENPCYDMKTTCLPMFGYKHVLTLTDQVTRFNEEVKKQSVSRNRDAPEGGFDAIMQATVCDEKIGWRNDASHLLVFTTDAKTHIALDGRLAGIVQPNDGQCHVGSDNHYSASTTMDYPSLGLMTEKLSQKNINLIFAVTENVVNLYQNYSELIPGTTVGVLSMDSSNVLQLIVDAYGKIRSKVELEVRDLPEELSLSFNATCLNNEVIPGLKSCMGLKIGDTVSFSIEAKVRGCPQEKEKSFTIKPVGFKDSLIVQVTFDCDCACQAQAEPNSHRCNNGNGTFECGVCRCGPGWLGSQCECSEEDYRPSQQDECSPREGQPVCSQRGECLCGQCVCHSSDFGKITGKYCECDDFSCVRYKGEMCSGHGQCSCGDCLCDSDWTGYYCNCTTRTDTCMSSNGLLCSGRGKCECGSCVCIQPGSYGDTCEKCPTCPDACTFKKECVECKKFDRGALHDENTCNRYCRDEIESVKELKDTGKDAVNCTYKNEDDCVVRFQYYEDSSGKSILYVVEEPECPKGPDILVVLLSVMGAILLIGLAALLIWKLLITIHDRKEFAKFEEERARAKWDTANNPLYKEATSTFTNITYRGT

| SMILES | IC50 (GPIIb/IIIa) [nM] | platelet aggregation-inhibition ratio (%), 2 hours after [1] [%] | platelet aggregation-inhibition ratio (%), 4 hours after [1] [%] | platelet aggregation-inhibition ratio (%), 6 hours after [1] [%] | platelet aggregation-inhibition ratio (%), 9 hours after [1] [%] | platelet aggregation-inhibition ratio (%), 12 hours after [1] [%] | platelet aggregation-inhibition ratio (%), 24 hours after [1] [%] |
| --- | --- | --- | --- | --- | --- | --- | --- |
| Cl.N=C(N)c1ccc(N2CCN(C3CCN(CC(=O)O)CC3CC(=O)O)CC2)cc1 (centres unmarked) [Example 8, 4-[4-(4-Amidinophenyl)-1-piperazinyl]-1,3-piperidinediacetic acid hydrochloride] | 8.4 | 57 ± 20 | 98 ± 1.0 | 98 ± 1.2 | 81 ± 19 | 100 ± 0 | 24 ± 9.1 |
| N=C(N)c1ccc(N2CCN(C3CCN(CC(=O)O)CC3)CC2=O)cc1 [Example 18, 4-[4-(4-Amidinophenyl)-3-oxo-1-piperazinyl]-1-piperidineacetic acid] | – | 86 ± 8.4 | 98 ± 0.9 | 75 ± 25 | 97 ± 1.7 | 99 ± 0.7 | 34 ± 11 |
| N=C(N)c1ccc(N2CC(=O)N(C3CCN(CC(=O)O)CC3)CC2=O)cc1 [Example 16, 4-[4-(4-amidinophenyl)-2,5-dioxo-1-piperazinyl]-1-piperidineacetic acid] | 10.4 | – | – | – | – | – | – |
